Experimental data published in US6670348B1, “Methods and compositions for destruction of selected proteins” (Sloan-Kettering Institute for Cancer Research, priority 1997, dated 2003).

Columns and labels:
PI3 kinase = assay: Inhibition of PI3 kinase activity; format: biochemical; details: FIG. 12
Raf-1 [1] = assay: Relative activity of FIG. 9A-9G compounds; format: cell-based; set-up: key: ++++: most active; −: minimal activity; details: Table 4
Description: The compounds of FIGS. 9A-9G have been tested for activity with respect to erbB2 (Her2), raf-1 and estrogen receptors.

[2] = test system: insulin-like growth factor 1 receptor (IGF1-R); assay: Immunoblotting for receptor presence in MCF-7 cells exposed to compound; format: cell-based; set-up: key to IGFI-R detected by immunoblotting: +: the receptor was detected by immunoblotting; −: it was not detectable; ±: a weak or equivocal result; details: for IGFI-R detected by immunoblotting: Table 2
ErbB2 [3] = assay: Immunoblotting for receptor presence in LNCaP prostate cancer cells; format: cell-based; set-up: key: +: the receptor was detected by immunoblotting; −: it was not detectable; ±: a weak or equivocal result; details: Table 3
ErbB2 [4] = assay: Immunoblotting for receptor presence in MCF-7 cells exposed to compound; format: cell-based; set-up: key: +: the receptor was detected by immunoblotting; −: it was not detectable; ±: a weak or equivocal result
Raf-1 [5] = assay: as above; format: cell-based; set-up: key: +: the receptor was detected by immunoblotting; −: it was not detectable; ±: a weak or equivocal result
androgen receptor = assay: Immunoblotting for receptor presence in LNCaP prostate cancer cells; format: cell-based; set-up: key to androgen receptor detected by immunoblotting: +: the receptor was detected by immunoblotting; −: it was not detectable; ±: a weak or equivocal result; details: for androgen receptor detected by immunoblotting: Table 3
[6] = test system: estrogen receptors and ErbB2 receptors; assay: Selectivity across receptor panel, immunoblotting in MCF-7 cells; format: cell-based; details: 1 μM
Method: The effects of these compounds on receptor of various types were evaluated by exposing MCF-7 breast cancer cells, in vitro, to 1 μM levels of the compounds for varying periods of time, and then testing for the presence of the receptor using receptor-specific antibodies in an immunoblotting experiment. The results are summarized in Table 1, where GM-4-E2 indicates a geldanamycin-estradiol compound with a 4-carbon tether.

estrogen receptor [7] = molecular target: T1, estrogen receptor (Homo sapiens, UniProt P03372); assay: Relative activity of FIG. 9A-9G compounds; format: cell-based; set-up: key to the marks not given beside the values; details: Table 4
T1 construct: testing for the presence of the receptor using receptor-specific antibodies in an immunoblotting experiment; endogenous in cells; host or cells: MCF-7

estrogen receptor [8] = molecular target: T1, estrogen receptor; assay: Immunoblotting for receptor presence in MCF-7 cells exposed to compound; format: cell-based
Method: The effects of these compounds on receptor of various types were evaluated by exposing MCF-7 breast cancer cells, in vitro, to 1 μM levels of the compounds for varying periods of time, and then testing for the presence of the receptor using receptor-specific antibodies in an immunoblotting experiment.

ErbB2 [9] = assay: Immunoblotting of LN-CAP cells exposed to GM or GM-T (Example 2); format: cell-based; details: immunoblotting over time, geldanamycin at 0.25 and 1 ug/ml, FIG. 8A
[10] = Example 5, exposure time 0 hours
[11] = Example 5, exposure time 6 hours
[12] = Example 5, exposure time 12 hours
[13] = Example 5, exposure time 24 hours
[14] = MCF-7 cells, 1 μM, exposure time 0 hours, Table 1
[15] = MCF-7 cells, 1 μM, exposure time 3 hours, Table 1
[16] = MCF-7 cells, 1 μM, exposure time 6 hours, Table 1
[17] = MCF-7 cells, 1 μM, exposure time 12 hours, Table 1
[18] = MCF-7 cells, 1 μM, exposure time 24 hours, Table 1
[19] = repeat experiment (Example 5), exposure time 0 hours, Table 2
[20] = repeat experiment (Example 5), exposure time 6 hours, Table 2
[21] = repeat experiment (Example 5), exposure time 12 hours, Table 2
[22] = repeat experiment (Example 5), exposure time 24 hours, Table 2

T1 sequence (P03372 whole entry): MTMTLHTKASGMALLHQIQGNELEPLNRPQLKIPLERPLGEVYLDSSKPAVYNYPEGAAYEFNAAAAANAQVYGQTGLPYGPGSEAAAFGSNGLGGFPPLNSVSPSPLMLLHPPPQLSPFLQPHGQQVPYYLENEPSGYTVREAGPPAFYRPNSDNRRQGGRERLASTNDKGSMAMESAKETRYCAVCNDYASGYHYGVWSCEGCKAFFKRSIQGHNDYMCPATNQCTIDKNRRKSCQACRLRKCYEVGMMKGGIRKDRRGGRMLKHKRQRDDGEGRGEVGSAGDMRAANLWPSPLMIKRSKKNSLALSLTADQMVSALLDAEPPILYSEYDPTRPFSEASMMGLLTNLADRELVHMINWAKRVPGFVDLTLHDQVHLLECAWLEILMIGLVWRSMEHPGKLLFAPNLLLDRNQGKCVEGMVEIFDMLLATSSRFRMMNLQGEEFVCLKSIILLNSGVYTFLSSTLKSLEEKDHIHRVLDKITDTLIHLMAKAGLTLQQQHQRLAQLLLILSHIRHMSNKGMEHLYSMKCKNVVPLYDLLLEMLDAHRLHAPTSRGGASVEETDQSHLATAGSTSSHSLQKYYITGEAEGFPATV

CCCCCCN(C)C=C1C(=O)OC(COC)C2(C)C1=C(O)C(=O)C1=C2C(OC(C)=O)CC2(C)C(=O)CCC12 (stereo not drawn) [E-analog 2]
inhibition of PI3 kinase activity (PI3 kinase): inhibits PI3 kinase activity

COC1C=CC=C(C)C(=O)NC2=CC(=O)C(NCCCCCCC3(O)CCC4C5CCc6cc(O)ccc6C5CCC43C)=C(CC(C)CC(OC)C(O)C(C)C=C(C)C1OC(N)=O)C2=O (stereo not drawn) [FIG. 9E]
relative activity, raf-1 (Raf-1 [1]): −

COC1C=CC=C(C)C(=O)NC2=CC(=O)C(NCCCCNCCCCCCC3(O)CCC4C5CCc6cc(O)ccc6C5CCC43C)=C(CC(C)CC(OC)C(O)C(C)C=C(C)C1OC(N)=O)C2=O (stereo not drawn) [FIG. 9F]
relative activity, raf-1 (Raf-1 [1]): −

COC1C=CC=C(C)C(=O)NC2=CC(=O)C(NCCCCCCN(C)CCCCCCC3(O)CCC4C5CCc6cc(O)ccc6C5CCC43C)=C(CC(C)CC(OC)C(O)C(C)C=C(C)C1OC(N)=O)C2=O (stereo not drawn) [FIG. 9G]
relative activity, raf-1 (Raf-1 [1]): −

COC1=C2C[C@@H](C)C[C@H](OC)[C@H](O)[C@@H](C)/C=C(\C)[C@H](OC(N)=O)[C@@H](OC)/C=C\C=C(/C)C(=O)NC(=CC1=O)C2=O [GM, geldanamycin, reference compound]
IGFI-R detected by immunoblotting [2, 10]: +
IGFI-R detected by immunoblotting [2, 11]: +
IGFI-R detected by immunoblotting [2, 12]: +
IGFI-R detected by immunoblotting [2, 13]: −
ErbB2 detected by immunoblotting (ErbB2 [3]; exposure time 0 hours): +
ErbB2 detected by immunoblotting (ErbB2 [3]; exposure time 3 hours): +
ErbB2 detected by immunoblotting (ErbB2 [3]; exposure time 6 hours): −
ErbB2 detected by immunoblotting (ErbB2 [3]; exposure time 12 hours): −
ErbB2 detected by immunoblotting (ErbB2 [3]; exposure time 24 hours): −
ErbB2 detected by immunoblotting (ErbB2 [4]; [14]): +
ErbB2 detected by immunoblotting (ErbB2 [4]; [15]): −
ErbB2 detected by immunoblotting (ErbB2 [4]; [16]): −
ErbB2 detected by immunoblotting (ErbB2 [4]; [17]): −
ErbB2 detected by immunoblotting (ErbB2 [4]; [18]): −
ErbB2 detected by immunoblotting (ErbB2 [4]; [19]): +
ErbB2 detected by immunoblotting (ErbB2 [4]; [20]): −
ErbB2 detected by immunoblotting (ErbB2 [4]; [21]): −
ErbB2 detected by immunoblotting (ErbB2 [4]; [22]): −
Raf-1 detected by immunoblotting (Raf-1 [5]; [14]): +
Raf-1 detected by immunoblotting (Raf-1 [5]; [15]): +
Raf-1 detected by immunoblotting (Raf-1 [5]; [16]): +
Raf-1 detected by immunoblotting (Raf-1 [5]; [17]): −
Raf-1 detected by immunoblotting (Raf-1 [5]; [18]): −
Raf-1 detected by immunoblotting (Raf-1 [5]; [19]): +
Raf-1 detected by immunoblotting (Raf-1 [5]; [20]): +
Raf-1 detected by immunoblotting (Raf-1 [5]; [21]): −
Raf-1 detected by immunoblotting (Raf-1 [5]; [22]): −
androgen receptor detected by immunoblotting (androgen receptor; exposure time 0 hours): +
androgen receptor detected by immunoblotting (androgen receptor; exposure time 3 hours): +
androgen receptor detected by immunoblotting (androgen receptor; exposure time 6 hours): +
androgen receptor detected by immunoblotting (androgen receptor; exposure time 12 hours): +
androgen receptor detected by immunoblotting (androgen receptor; exposure time 24 hours): −

COC1C=CC=C(C)C(=O)NC2=CC(=O)C(NCC=CCC3CC4C5CCc6cc(O)ccc6C5CCC4(C)C3O)=C(CC(C)CC(OC)C(O)C(C)C=C(C)C1OC(N)=O)C2=O (stereo not drawn) [GM-4-E2]
selectivity for estrogen receptors and ErbB2 receptors compared to geldanamycin alone [6]: most pronounced
relative activity, estrogen receptor (estrogen receptor [7]): ++++
estrogen receptor detected by immunoblotting (estrogen receptor [8]; [14]): +
estrogen receptor detected by immunoblotting (estrogen receptor [8]; [15]): ±
estrogen receptor detected by immunoblotting (estrogen receptor [8]; [16]): −
estrogen receptor detected by immunoblotting (estrogen receptor [8]; [17]): −
estrogen receptor detected by immunoblotting (estrogen receptor [8]; [18]): −
estrogen receptor detected by immunoblotting (estrogen receptor [8]; [19]): +
estrogen receptor detected by immunoblotting (estrogen receptor [8]; [20]): −
estrogen receptor detected by immunoblotting (estrogen receptor [8]; [21]): −
estrogen receptor detected by immunoblotting (estrogen receptor [8]; [22]): −
IGFI-R detected by immunoblotting [2, 10]: +
IGFI-R detected by immunoblotting [2, 11]: +
IGFI-R detected by immunoblotting [2, 12]: +
IGFI-R detected by immunoblotting [2, 13]: +
effect on IGF1-R compared with geldanamycin alone ([2]; Example 5, in words): less injurious to IGF1-R than geldanamycin alone
ErbB2 detected by immunoblotting (ErbB2 [3]; exposure time 0 hours): +
ErbB2 detected by immunoblotting (ErbB2 [3]; exposure time 3 hours): +
ErbB2 detected by immunoblotting (ErbB2 [3]; exposure time 6 hours): +
ErbB2 detected by immunoblotting (ErbB2 [3]; exposure time 12 hours): −
ErbB2 detected by immunoblotting (ErbB2 [3]; exposure time 24 hours): −
ErbB2 detected by immunoblotting (ErbB2 [4]; [14]): +
ErbB2 detected by immunoblotting (ErbB2 [4]; [15]): ±
ErbB2 detected by immunoblotting (ErbB2 [4]; [16]): −
ErbB2 detected by immunoblotting (ErbB2 [4]; [17]): −
ErbB2 detected by immunoblotting (ErbB2 [4]; [18]): −
ErbB2 detected by immunoblotting (ErbB2 [4]; [19]): +
ErbB2 detected by immunoblotting (ErbB2 [4]; [20]): ±
ErbB2 detected by immunoblotting (ErbB2 [4]; [21]): −
ErbB2 detected by immunoblotting (ErbB2 [4]; [22]): −
relative activity, raf-1 (Raf-1 [1]): −
Raf-1 detected by immunoblotting (Raf-1 [5]; [14]): +
Raf-1 detected by immunoblotting (Raf-1 [5]; [15]): +
Raf-1 detected by immunoblotting (Raf-1 [5]; [16]): +
Raf-1 detected by immunoblotting (Raf-1 [5]; [17]): +
Raf-1 detected by immunoblotting (Raf-1 [5]; [18]): +
Raf-1 detected by immunoblotting (Raf-1 [5]; [19]): +
Raf-1 detected by immunoblotting (Raf-1 [5]; [20]): +
Raf-1 detected by immunoblotting (Raf-1 [5]; [21]): +
Raf-1 detected by immunoblotting (Raf-1 [5]; [22]): +
androgen receptor detected by immunoblotting (androgen receptor; exposure time 0 hours): +
androgen receptor detected by immunoblotting (androgen receptor; exposure time 3 hours): +
androgen receptor detected by immunoblotting (androgen receptor; exposure time 6 hours): +
androgen receptor detected by immunoblotting (androgen receptor; exposure time 12 hours): +
androgen receptor detected by immunoblotting (androgen receptor; exposure time 24 hours): +
destruction of androgen receptors (androgen receptor; in words): does not

COC1C=CC=C(C)C(=O)NC2=CC(=O)C(NCCCCNCCCCCCC3(O)CCC4C5CCc6cc(O)ccc6C5CCC43C)=C(CC(C)CC(OC)C(O)C(C)C=C(C)C1OC(N)=O)C2=O (stereo not drawn) [GM-10-E2]
estrogen receptor detected by immunoblotting (estrogen receptor [8]; [14]): +
estrogen receptor detected by immunoblotting (estrogen receptor [8]; [15]): +
estrogen receptor detected by immunoblotting (estrogen receptor [8]; [16]): +
estrogen receptor detected by immunoblotting (estrogen receptor [8]; [17]): ±
estrogen receptor detected by immunoblotting (estrogen receptor [8]; [18]): +
ErbB2 detected by immunoblotting (ErbB2 [4]; [14]): +
ErbB2 detected by immunoblotting (ErbB2 [4]; [15]): +
ErbB2 detected by immunoblotting (ErbB2 [4]; [16]): +
ErbB2 detected by immunoblotting (ErbB2 [4]; [17]): +
ErbB2 detected by immunoblotting (ErbB2 [4]; [18]): −
Raf-1 detected by immunoblotting (Raf-1 [5]; [14]): +
Raf-1 detected by immunoblotting (Raf-1 [5]; [15]): +
Raf-1 detected by immunoblotting (Raf-1 [5]; [16]): +
Raf-1 detected by immunoblotting (Raf-1 [5]; [17]): +
Raf-1 detected by immunoblotting (Raf-1 [5]; [18]): +

COC1C=CC=C(C)C(=O)NC2=CC(=O)C(NCCCCCCN(C)CCCCCCC3(O)CCC4C5CCc6cc(O)ccc6C5CCC43C)=C(CC(C)CC(OC)C(O)C(C)C=C(C)C1OC(N)=O)C2=O (stereo not drawn) [GM-13-E2]
estrogen receptor detected by immunoblotting (estrogen receptor [8]; [14]): +
estrogen receptor detected by immunoblotting (estrogen receptor [8]; [15]): +
estrogen receptor detected by immunoblotting (estrogen receptor [8]; [16]): +
estrogen receptor detected by immunoblotting (estrogen receptor [8]; [17]): ±
estrogen receptor detected by immunoblotting (estrogen receptor [8]; [18]): −
ErbB2 detected by immunoblotting (ErbB2 [4]; [14]): +
ErbB2 detected by immunoblotting (ErbB2 [4]; [15]): +
ErbB2 detected by immunoblotting (ErbB2 [4]; [16]): +
ErbB2 detected by immunoblotting (ErbB2 [4]; [17]): +
ErbB2 detected by immunoblotting (ErbB2 [4]; [18]): −
Raf-1 detected by immunoblotting (Raf-1 [5]; [14]): +
Raf-1 detected by immunoblotting (Raf-1 [5]; [15]): +
Raf-1 detected by immunoblotting (Raf-1 [5]; [16]): +
Raf-1 detected by immunoblotting (Raf-1 [5]; [17]): +
Raf-1 detected by immunoblotting (Raf-1 [5]; [18]): +

COC1C=CC=C(C)C(=O)NC2=CC(=O)C(NCCCCCCC#CC3(O)CCC4C5CCC6=CC(=O)CCC6(C)C5CCC43C)=C(CC(C)CC(OC)C(O)C(C)C=C(C)C1OC(N)=O)C2=O (stereo not drawn) [GM-T, 17-testosterone-tethered-17-demethoxy-17-GM]
reduction of levels of ErbB2 (ErbB2 [9]): the least reduction was observed

CCCCCCNC=C1C(=O)OC(COC)C2(C)C1=C(O)C(=O)C1=C2C(OC(C)=O)CC2(C)C(=O)CCC12 (stereo not drawn) [Z-analog 1]
inhibition of PI3 kinase activity (PI3 kinase): inactive
